Measurements: patent publication US20170356005A1, “NON-VIRAL IPSCS INDUCING COMPOSITION AND KITS” (Guangzhou Biocare Biotechnology Co., Ltd, priority 2016, published 2017)
Counter-ions that a name gives are not always drawn.

test system: urine-derived renal epithelial cells; test: AP staining of iPSC clones after induction culture (efficiency of AP positive clones); type: cell-based, human; conditions: Example 5, FIG. 11-12
Experimental: 1. The procedure for AP staining is as follows,
a) Aspirate and remove the growth medium from the cultures to be stained when the cell culture is finished, wash the culture with 1×PBS one time; Fix the cells with 4% paraformaldehyde at room temperature for 2 min;
b) Aspirate the fixing solution, wash the culture with 1×TBST for 3 times; Balance with AP buffer at room temperature for 5 min;
c) Chromogenic reaction was performed with AP chromogenic reagent at room temperature in dark for 15 min (5-15 min, terminated when the color of clones became darker and without background, increase the reaction time appropriately if the clones were not stained). The chromogenic reagent was aspirated, cells were washed with 1×PBS for two times, covered with an appropriate amount of 1×PBS, observed and counted under a microscope.
Alkaline phosphatase (AP) is a phosphomonoesterase. The alkaline phosphatase in the cytoplasm can hydrolyze sodium naphthol phosphate to produce α-naphthol in alkaline environments. The latter reacts with a stable azo salt and presents a deep purple color, which the presence of alkaline phosphatase and the abundance of expression could be determined accordingly. Alkaline phosphatase is highly expressed in undifferentiated pluripotent stem cells, and the activity of alkaline phosphatase in the differentiated pluripotent stem cells is decreased. Therefore, whether the cells are clones of iPSCs could be determined by alkaline phosphatase staining (AP staining). And, thus the efficiency of iPSCs production can be easily judged according to the efficiency of AP positive clones.
In Example 1-2 and 4-6, the efficiency of AP positive clones was determined based on the number of cells in each group after electroporation transformation, ie the efficiency of AP positive clones=number of AP positive clones/number of passaged cells per well after electroporation in each group;
In Example 3 and 7-10, the efficiency of AP positive clones was determined based on the total number of cells after electroporation transformation, i.e. the efficiency of AP positive clones=number of AP positive clones/total number of cells after electroporation transformation.
a) Electroporation transformation: The recombinant plasmids obtained in step 1) were added into the culture of renal epithelial cells after digestion with trypsin, and then transferred into the renal epithelial cells. […]
b) Induction culture: 1-3 days after Step 1), or when the cells reached a confluence of 30% or more, the culture medium of pluripotent stem cell was used to continue induction culture. About 15-30 days after the mature of iPSCs clones, the positive clones of iPSCs were identified by AP staining, and the efficiency of AP positive clones was calculated accordingly;

Row | Compound | preferable concentration (AP staining)
1 | Cc1c[nH]c(-c2cnc(NCCNc3ccc(C#N)cn3)nc2-c2ccc(Cl)cc2Cl)n1 [CHIR-99021] | 3 µM
2 | O=C(NOC[C@H](O)CO)c1ccc(F)c(F)c1Nc1ccc(I)cc1F [PD0325901] | 0.5 µM
3 | CCCC(=O)[O-].[Na+] [sodium butyrate, Sodium Butyrate] | 250 µM
4 | N[C@@H]1C[C@H]1c1ccccc1 [tranylcypromine hydrochloride, Tranylcypromine hydrochloride] | 2 µM
